Legend:
Assay type in all cases: cell-based
[1] = tested on: Pa-4 and Pa-4/HMGA2 cells; test: MTT cell viability assay; details: Dox 0-7 μM or irinotecan 0-50 μM
Pa-4/HMGA2 cells [2] = test: FACS analysis after caffeine and Dox (G2/M, sub-G1); details: 4 mM caffeine or 1 μM Dox
Protocol: Pa-4 and Pa-4/HMGA2 cells were seeded at 50-80% confluency in 35 mm dishes and serum starved overnight to synchronize cell cycle. […] Following treatment, cells were fixed in 70% ethanol overnight, stained with 20 μg/ml propidium iodide, and subjected to FACS analysis.
Apoptosis was quantified by assessing sub-G1 cell populations.

[3] = tested on: ATM-deficient pEBS7 cells and ATM-proficient YZ5 cells; test: MTT cell viability assay; details: Dox 0-1 μM
[4] = tested on: p53 Ser-15 and Chk2 Thr-68 phosphorylation; test: Western analysis of p53 and Chk2 phosphorylation in MO59J and MO59K cells
Protocol: To establish the role of DNA-PK in Dox-induced p53 and Chk2 phosphorylation, MO59J (DNA-PKcs-deficient) and MO59K (DNA-PKcs-proficient) cells were treated with Dox, and their p53 and Chk2 phosphorylation profiles were probed.

HMGA2/Ku70/Ku80 complex = test: Co-immunoprecipitation after Dox treatment
[5] = tested on: HeLa and HeLa/HMGA2 cells; test: MTT cell viability assay; details: Dox 0-1 μM
Excerpt: HS578T, HCC1419, and CHO cells

H2AX phosphorylation [6] = test: Western analysis of H2AX phosphorylation in pEBS7, YZ5, and MO59J cells; details: 2 μM Dox for 2 hours
Protocol: pEBS7, YZ5, and MO59J cells were treated with 2 μM Dox for 2 hours, at which point cell lysates were removed and subjected to Western analyses using anti-phospho-H2AX antibodies. Control Western analyses were performed using monoclonal anti-actin antibodies.

[7] = tested on: PUMA and NOXA transcriptional activation; test: Quantitative real-time RT-PCR of PUMA and NOXA; details: 2 μM Dox
[8] = tested on: Ku70-deficient MEF cells and their wild-type counterparts; test: MTT cell viability assay; details: increasing concentrations, 72 hours
Protocol: To confirm the involvement of DNA-PK in mediating HMGA2 chemosensitization to Dox-induced DNA damage, MTT assays were conducted as described above on Ku70-deficient (Ku70^−/^−) MEF cells and their wild-type counterparts and on DNA-PKcs-deficient MO59J cells and DNA-PKcs-proficient MO59K cells.

[9] = tested on: HepG2, Hep3B, and CL48 cells; test: MTT cell viability assay; details: increasing concentrations, 72 hours
Protocol: MTT assays were conducted as described above to assess the effect of HGMA2 expression on the sensitivity of HepG2, Hep3B, and CL48 cells to Dox or cisplatin. […] To exclude the possibility that HMGA2 increases chemosensitization in general, Taxol-induced cell growth inhibition was measured in HeLa and HeLa/HMGA2 cells. Taxol is a microtubule stabilizing agent (Slichenmyer 1991) commonly used as a chemotherapeutic agent for combating breast and ovarian cancers.

Pa-4/HMGA2 cells [10] = test: FACS cell cycle analysis (G2/M, sub-G1)
Protocol: (§1) Pa-4 and Pa-4/HMGA2 cells were seeded at 50-80% confluency in 35 mm dishes and serum starved overnight to synchronize cell cycle. Synchronized cells were treated with 1 μM Dox or vehicle for 24 hours, then fixed in 70% ethanol overnight and stained with 20 μg/ml propidium iodide. The percentage of cells in G1 versus G2/M was then determined by FACS analysis at the Norris Cancer Center Flow Cytometry Core Facility using FACSCaliber (Becton Dickinson, Franklin Lakes, N.J.).
(§2) Apoptosis of Pa-4 and Pa-4/HMGA2 cells was quantified by assessing the sub-G, cell population, a hallmark of cell apoptosis. The percentage of […] Pa-4/HMGA2 cells was increased five-fold 24 hours after Dox treatment, versus an increase of only two-fold in Pa-4 cells (FIG. 3A, panel e).

Pa-4 cells = test: FACS cell cycle analysis (G2/M, sub-G1)
Protocol: as §1, §2

H2AX phosphorylation [11] = test: Western analysis of H2AX phosphorylation in U2OS.GK41 cells; details: 2 μM Dox, 1 hour and 2 hours, cells expressing ATR-kd
Protocol: For experiments using U2OS.GK41 cells, cells were pre-treated with 1 μg/ml doxycycline for 48 […] to induce expression of ATR-kd. Non-induced control cells were pre-treated with vehicle only. Induced and non-induced cells were then treated with 2 μM Dox. At 1 hour and 2 hours after Dox treatment, cell lysates were removed and subjected to Western analyses using anti-phospho-H2AX or anti-actin antibodies.

[12] = 10 μM Dox for 30 minutes, HeLa/HMGA2 cells
[13] = 1 μM Dox for 24 hours, synchronized cells

## COc1cccc2c1C(=O)c1c(O)c3c(c(O)c1C2=O)C[C@@](O)(C(=O)CO)C[C@@H]3O[C@H]1C[C@H](N)[C@H](O)[C@H](C)O1 [Dox, doxorubicin]
[1]; 72 hours
  difference in decrease of viability between Pa-4/HMGA2 and Pa-4 cells: much larger in Pa-4/HMGA2 cells than it was in Pa-4 cells
[1]; 72 hours after treatment
  cell viability / growth inhibition: decreased cell viability in a dose-dependent manner in both Pa-4 and Pa-4/HMGA2 cells
Pa-4/HMGA2 cells [2]
  apoptosis (sub-G1 cell population), single agent: substantially larger increase in Pa-4/HMGA2 cells
Pa-4/HMGA2 cells [2]; 48 hours
  cell cycle distribution / cells in G2/M, single agent: greatly increased the number of cells in G2/M phase
[3]; 72 hours
  decrease in viability, pEBS7 versus YZ5: less pronounced in the ATM-negative pEBS7 cells
[3]; 72 hours after treatment
  cell viability: decreased cell viability in both cell types in a dose-dependent manner
[4]; Dox, MO59J and MO59K cells
  p53 phosphorylation at Ser-15: robust p53 phosphorylation at Ser-15
[4]; MO59J cells, 2 hours post-Dox treatment
  Chk2 phosphorylation at Thr-68: barely detectable
HMGA2/Ku70/Ku80 complex; [12]
  DNA-PKcs in the immunocomplexes of Ku80: enriched the amount of DNA-PKcs detected in the immunocomplexes of Ku80
  anti-Ku80-immunoprecipitated HMGA2: decrease in anti-Ku80-immunoprecipitated HMGA2
HMGA2/Ku70/Ku80 complex; Dox, Hs578T cells
  interaction of endogenous HMGA2 with Ku80/Ku70: this interaction was disrupted upon Dox-treatment
[5]
  cell viability, HeLa/HMGA2 versus HeLa: HMGA2 expression enhancing the chemosensitivity of cells to Dox
H2AX phosphorylation [6]; YZ5 cells and MO59J cells
  induction of H2AX phosphorylation: substantial increase in H2AX phosphorylation following Dox treatment
H2AX phosphorylation [6]; pEBS7 cells
  induction of H2AX phosphorylation: lack of Dox-mediated induction
[7]; CL48 and HepG2 cells
  transcriptional activation of PUMA and NOXA: marked transcriptional activation of PUMA and NOXA at 8 hours after treatment
[7]; Hep3B cells and HeLa cells
  transcriptional activation of PUMA and NOXA: modest induction if any
[8]
  viability, Ku70-deficient versus wild type: marked decrease in viability
[9]
  sensitivity, HepG2 and Hep3B versus CL48: greater sensitivity to both Dox and cisplatin than HMGA2-underexpressing CL48 cells
Pa-4/HMGA2 cells [10]; [13]
  percentage of cells in G2/M phase: 62.6%
Pa-4/HMGA2 cells [10]; 24 hours after Dox treatment
  increase in apoptosis (sub-G1 cell population): five-fold
Pa-4 cells; [13]
  percentage of cells in G2/M phase: 50.9%
Pa-4 cells; 24 hours after Dox treatment
  increase in apoptosis (sub-G1 cell population): two-fold
H2AX phosphorylation [11]
  induction of H2AX phosphorylation: delay in Dox-mediated induction of H2AX phosphorylation

— patent publication US20070160684A1, “Methods for increasing cancer cell chemosensitivity” (priority 2005, published 2007)
